Measured values: PMC9405973, “Altered Conformational Landscape upon Sensing Guanine Nucleotides in a Disease Mutant of Elongation Factor-like 1 (EFL1) GTPase” (Biomolecules, 2022)
Values joined by “and” are separate entries in the source; they are usually repeats but may differ in a detail not shown here. Equal entries are not always repeated. Where two headings read alike, the source gives them in different places.

Experiments:
[1] = tested on: wild-type Efl1•Sdo1; design: method as in PMID 30780079; details: −Mg^2+, cited from earlier work
[2] = target: T1, Efl1 R1086Q•Sdo1 (Saccharomyces cerevisiae, UniProt P53893, R1086Q); experiment: ITC: binding of guanine nucleotides to pre-formed complex Efl1 R1086Q•Sdo1; details: for ΔCpb: from ΔHb at 25–35 °C; for -TΔs / Δg / Δh / κ (heterotropic cooperativity): Effect of Mg^2+
T1 construct: made in house; host or cells: Efl1: Saccharomyces cerevisiae; Sdo1: Escherichia coli C41
T1 sequence (P53893 whole entry R1086Q): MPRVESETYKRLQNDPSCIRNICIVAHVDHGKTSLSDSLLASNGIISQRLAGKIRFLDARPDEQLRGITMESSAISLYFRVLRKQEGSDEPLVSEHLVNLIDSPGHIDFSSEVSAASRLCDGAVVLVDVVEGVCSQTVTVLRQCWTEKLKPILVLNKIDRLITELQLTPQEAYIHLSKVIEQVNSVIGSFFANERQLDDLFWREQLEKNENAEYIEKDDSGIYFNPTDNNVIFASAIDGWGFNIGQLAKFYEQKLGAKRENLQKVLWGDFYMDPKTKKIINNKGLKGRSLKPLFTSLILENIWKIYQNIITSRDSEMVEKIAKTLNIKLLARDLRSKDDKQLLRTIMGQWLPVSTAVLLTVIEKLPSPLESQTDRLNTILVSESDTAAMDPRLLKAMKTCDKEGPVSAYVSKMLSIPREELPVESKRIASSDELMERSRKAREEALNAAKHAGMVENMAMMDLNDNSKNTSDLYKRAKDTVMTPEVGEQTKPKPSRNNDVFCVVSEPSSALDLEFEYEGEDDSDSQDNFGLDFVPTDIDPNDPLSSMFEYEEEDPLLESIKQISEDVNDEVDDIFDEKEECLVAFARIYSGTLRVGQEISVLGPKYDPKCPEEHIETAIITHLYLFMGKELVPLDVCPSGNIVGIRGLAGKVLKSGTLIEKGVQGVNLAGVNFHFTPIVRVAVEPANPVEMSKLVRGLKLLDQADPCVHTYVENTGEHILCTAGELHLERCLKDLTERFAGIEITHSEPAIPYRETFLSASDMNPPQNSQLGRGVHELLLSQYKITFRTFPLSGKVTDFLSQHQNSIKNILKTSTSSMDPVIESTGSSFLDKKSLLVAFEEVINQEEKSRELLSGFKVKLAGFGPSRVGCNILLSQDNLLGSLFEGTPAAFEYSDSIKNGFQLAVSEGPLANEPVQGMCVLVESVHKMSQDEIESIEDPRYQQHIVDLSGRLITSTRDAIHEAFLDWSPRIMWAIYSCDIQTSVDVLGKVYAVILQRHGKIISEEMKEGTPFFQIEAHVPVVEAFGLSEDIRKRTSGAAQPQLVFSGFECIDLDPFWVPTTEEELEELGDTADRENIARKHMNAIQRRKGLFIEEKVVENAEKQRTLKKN
T1 sequence (Q07953 whole entry, further chain): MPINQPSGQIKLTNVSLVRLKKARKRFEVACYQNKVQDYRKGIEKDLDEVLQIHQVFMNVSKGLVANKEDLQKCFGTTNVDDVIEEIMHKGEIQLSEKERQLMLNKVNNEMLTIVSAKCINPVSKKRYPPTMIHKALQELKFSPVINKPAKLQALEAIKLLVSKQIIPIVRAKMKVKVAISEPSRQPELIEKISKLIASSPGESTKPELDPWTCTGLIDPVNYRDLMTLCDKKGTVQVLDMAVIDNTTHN
Description: All calorimetric measurements were carried out using MicroCal^TM iTC200 System (GE Healthcare, Northampton, MA, USA) in a temperature range of 25–35 °C. Experiments were performed in a buffer consisting of 50 mM Tris-HCl (pH 8.0), 150 mM NaCl, 100 µM DTT, and 5% glycerol. In the titrations with Mg^2+-bound nucleotides, both the ligand and protein solutions contained 5 mM MgCl2. In the case of titrations with Mg^2+-free nucleotide, both the ligand and protein solutions were supplemented with 2 mM EDTA to sequester any residual trace of metal ions in solution. Protein samples and ligands were prepared in the exact same buffer prior to each titration. Protein concentration in the cell comprised 30–50 µM GTPase, while the ligand concentration in the syringe was 2–3 mM for GTP, MgGTP, GDP, and MgGDP. To ensure measuring the interaction of the complex Efl1 R1086Q•Sdo1 with the nucleotide, an eight-fold concentration excess of Sdo1 was used compared with that of the enzyme. […] The titration schedule consisted of 15–20 consecutive injections of the ligand with 5 min intervals between injections and a stirring rate of 700 rpm. The dilution heat of the ligand was obtained by adding the ligand to a buffer solution under identical conditions and with the same injection schedule used for the protein sample. All samples were degassed for 10 min prior to the experiment.
The binding isotherms obtained for the isolated GTPase in the presence of Mg(II) were analysed using a ternary model in which the protein can bind to the free nucleotide (G(D)TP) or that bound to one magnesium ion (MgG(D)TP); additionally, GTP may also exist in the form of Mg2GTP, which is not recognised by the protein. The derivation of this coupled-equilibria model can be reviewed in [6, 31]. The binding constant (Kb), the enthalpy change (∆Hb), and the stoichiometry (n) were obtained with the non-linear routines implemented in Origin 5.0 (OriginLab, Co., Northampton, MA, USA) using a one-binding-site model as described in [32, 33]. The heterotropic cooperativity for the binding of guanine nucleotides and Sdo1 to Efl1 R1086Q were calculated as previously described in [6, 32]. The cooperative effects of Mg(II) on the binding of guanine nucleotides to Efl1 R1086Q alone and bound to Sdo1 were calculated as follows:κ = KE-MG/KE-G κ = KES-MG/KES-G Δh = ΔHE-MG − ΔHE-G Δh = ΔHES-MG − ΔHES-G where subscripts E-MG and E-G stand for the association of the metal-bound and metal-free guanine nucleotide with mutant Efl1, respectively. Corresponding expressions applied to the heterotropic cooperativity of the binding of nucleotides to the preformed complex, Efl1•Sdo1 (ES).
The impact of Sdo1 on the binding of Efl1 R1086Q to guanine nucleotides in the presence of magnesium ions is contained in KES-MG and ΔHES-MG relative to the KE-S and ΔHE-S values; analogous ratios report the effects in the absence of Mg(II):κ = KES-MG/KE-S κ = KES-G/KE-G Δh = ΔHES-MG − ΔHE-S Δh = ΔHES-G − ΔHE-G
The corresponding cooperative entropy change was calculated as:TΔs = Δh − Δg = Δh + RTlnκ
The detailed methodology and equations to compute the changes in the accessible surface area (∆ASA) of the GTPase upon binding to nucleotides and the ∆S energetic-based parameters are reported in [6]. Briefly, the water-accessible areas (ASAs) were computed using programme NACCESS, while the changes in accessible surface area (ΔASA) upon the formation of each GTPase–nucleotide complex were estimated considering the difference between the complex and the sum of the free interacting partners. The calculated polar (ΔASAp) and apolar (ΔASAap) area changes were subsequently used to estimate the free molecular partners. […]

[3] = tested on: wild-type Efl1; details: cited from earlier work; for -TΔSb / Kd / ΔGb / ΔHb / ΔCpb: guanine nucleotide
[4] = Effect of Mg^2+, wild-type Efl1 − Sdo1, 30 °C
[5] = Effect of Sdo1, wild-type Efl1 − Mg^2+, 30 °C

Nc1nc2c(ncn2[C@@H]2O[C@H](COP(=O)(O)OP(=O)(O)OP(=O)(O)O)[C@@H](O)[C@H]2O)c(=O)[nH]1 [GTP]
-TΔSb ([1]; 30 °C): -4.7 kcal/mol | Kd ([1]; 30 °C): 11 µM | ΔGb ([1]; 30 °C): -6.8 kcal/mol | ΔHb ([1]; 30 °C): -2.1 ± 0.2 kcal/mol | ΔCpb [1]: −90 cal mol^−1 K^−1 and −90 ± 5 cal mol^−1 K^−1 | -TΔSb ([2]; +Mg^2+, 25 °C): -5.1 kcal/mol | ΔGb ([2]; +Mg^2+, 25 °C): -6.2 kcal/mol | ΔHb ([2]; +Mg^2+, 25 °C): -1.1 ± 0.04 kcal/mol | -TΔSb ([2]; +Mg^2+, 30 °C): -2.9 kcal/mol | Nconfres (number of residues changing conformation, absolute value) ([2]; +Mg^2+, 30 °C): 36 | Nconfrotb (number of routable bonds changing conformation, absolute value) ([2]; +Mg^2+, 30 °C): 47 | ΔCpconf ([2]; +Mg^2+, 30 °C): −375 cal mol^−1 K^−1 | ΔCprb ([2]; +Mg^2+, 30 °C): −25 cal mol^−1 K^−1 | ΔGb ([2]; +Mg^2+, 30 °C): -5.9 kcal/mol | ΔHb ([2]; +Mg^2+, 30 °C): -3.0 ± 0.2 kcal/mol | ΔSb ([2]; +Mg^2+, 30 °C): 9 cal mol^−1 K^−1 | ΔSconf ([2]; +Mg^2+, 30 °C): −78 cal mol^−1 K^−1 | ΔSsolv ([2]; +Mg^2+, 30 °C): 96 cal mol^−1 K^−1 | −ΔASAconf ([2]; +Mg^2+, 30 °C): 1683 Å^2 | -TΔSb ([2]; +Mg^2+, 35 °C): -0.9 kcal/mol | ΔGb ([2]; +Mg^2+, 35 °C): -6.0 kcal/mol | ΔHb ([2]; +Mg^2+, 35 °C): -5.1 ± 0.4 kcal/mol | ΔCpb ([2]; +Mg^2+): −400 cal mol^−1 K^−1 and −400 ± 11 cal mol^−1 K^−1 | -TΔs ([2]; Efl1 R1086Q + Sdo1, 25 °C): -2.6 kcal/mol | Δg ([2]; Efl1 R1086Q + Sdo1, 25 °C): 0.3 kcal/mol | Δh ([2]; Efl1 R1086Q + Sdo1, 25 °C): 2.9 kcal/mol | κ (heterotropic cooperativity) ([2]; Efl1 R1086Q + Sdo1, 25 °C): 0.6 | -TΔs ([2]; Efl1 R1086Q + Sdo1, 30 °C): -0.3 kcal/mol | Δg ([2]; Efl1 R1086Q + Sdo1, 30 °C): 0.6 kcal/mol | Δh ([2]; Efl1 R1086Q + Sdo1, 30 °C): 0.9 kcal/mol | κ (heterotropic cooperativity) ([2]; Efl1 R1086Q + Sdo1, 30 °C): 0.3 | -TΔs ([2]; Efl1 R1086Q + Sdo1, 35 °C): 1.9 kcal/mol | Δg ([2]; Efl1 R1086Q + Sdo1, 35 °C): 0.5 kcal/mol | Δh ([2]; Efl1 R1086Q + Sdo1, 35 °C): -1.4 kcal/mol | κ (heterotropic cooperativity) ([2]; Efl1 R1086Q + Sdo1, 35 °C): 0.5 | Kd ([2]; +Mg^2+, 25 °C): 29 ± 5 µM | Kd ([2]; +Mg^2+, 30 °C): 58 ± 7 µM | Kd ([2]; +Mg^2+, 35 °C): 52 ± 7 µM | Kd ([2]; −Mg^2+, 25 °C): 17 ± 5 µM | Kd ([2]; −Mg^2+, 30 °C): 23 ± 7 µM | Kd ([2]; −Mg^2+, 35 °C): 25 ± 7 µM | fold decrease in affinity of the preformed complex compared with the free enzyme ([2]; absence of magnesium ions): 2–4 times | -TΔSb ([2]; −Mg^2+, 25 °C): -2.5 kcal/mol | ΔGb ([2]; −Mg^2+, 25 °C): -6.5 kcal/mol | ΔHb ([2]; −Mg^2+, 25 °C): -4.0 ± 0.2 kcal/mol | -TΔSb ([2]; −Mg^2+, 30 °C): -2.6 kcal/mol | Nconfres (number of residues changing conformation, absolute value) ([2]; −Mg^2+, 30 °C): 4 | Nconfrotb (number of routable bonds changing conformation, absolute value) ([2]; −Mg^2+, 30 °C): 14 | ΔCpconf ([2]; −Mg^2+, 30 °C): 41 cal mol^−1 K^−1 | ΔGb ([2]; −Mg^2+, 30 °C): -6.5 kcal/mol | ΔHb ([2]; −Mg^2+, 30 °C): -3.9 ± 0.1 kcal/mol | ΔSb ([2]; −Mg^2+, 30 °C): 9 cal mol^−1 K^−1 | ΔSconf ([2]; −Mg^2+, 30 °C): 24 cal mol^−1 K^−1 | ΔSsolv ([2]; −Mg^2+, 30 °C): −7 cal mol^−1 K^−1 | −ΔASAconf ([2]; −Mg^2+, 30 °C): −184 Å^2 | -TΔSb ([2]; −Mg^2+, 35 °C): -2.8 kcal/mol | ΔGb ([2]; −Mg^2+, 35 °C): -6.5 kcal/mol | ΔHb ([2]; −Mg^2+, 35 °C): -3.7 ± 0.4 kcal/mol | ΔCpb ([2]; −Mg^2+): 30 cal mol^−1 K^−1 and 30 ± 6 cal mol^−1 K^−1 | -TΔs [3, 4]: -1.3 kcal/mol | Δg [3, 4]: -0.4 kcal/mol | Δh [3, 4]: 0.9 kcal/mol | κ (heterotropic cooperativity) [3, 4]: 2 | -TΔs [3, 5]: -7.0 kcal/mol | Δg [3, 5]: -1.8 kcal/mol | Δh [3, 5]: 5.2 kcal/mol | κ (heterotropic cooperativity) [3, 5]: 22.3 | -TΔSb ([3]; +Mg^2+, 30 °C): 1.0 kcal/mol | Kd ([3]; +Mg^2+, 30 °C): 125 µM | ΔGb ([3]; +Mg^2+, 30 °C): -5.4 kcal/mol | ΔHb ([3]; +Mg^2+, 30 °C): -6.4 ± 0.4 kcal/mol | ΔCpb ([3]; +Mg^2+): −560 ± 23 cal mol^−1 K^−1 and −560 cal mol^−1 K^−1 | -TΔSb ([3]; −Mg^2+, 30 °C): 2.3 kcal/mol | Kd ([3]; −Mg^2+, 30 °C): 250 µM | ΔGb ([3]; −Mg^2+, 30 °C): -5.0 kcal/mol | ΔHb ([3]; −Mg^2+, 30 °C): -7.3 ± 0.3 kcal/mol | ΔCpb ([3]; −Mg^2+): −700 ± 34 cal mol^−1 K^−1 and −700 cal mol^−1 K^−1 | fold by which Sdo1 favoured the interaction with GTP ([3]; wild-type Efl1): 20–40 fold
